Test results reported in ChEMBL document CHEMBL3352656 (Bioorg Med Chem Lett, 2015).

How the values were obtained:
[1] = Volume of distribution at steady state in Wistar rat at 0.4 mg/kg, iv by HPLC-MS/MS method; type: ADME, organism-based; set-up: dose 0.4 mg/kg, route intravenous; settings: in vivo, read-out: Vdss
[2] = Permeability from apical to basolateral side in human Caco2 cells by HPLC-MS/MS method; type: ADME, cell-based; settings: Caco-2, read-out: permeability
[3] = Oral bioavailability in Wistar rat at […] by HPLC-MS/MS method; type: ADME, organism-based; settings: in vivo
[4] = Permeability from basolateral to apical side in human Caco2 cells by HPLC-MS/MS method; type: ADME, cell-based; settings: Caco-2, read-out: permeability
[5] = Mean residence time in Wistar rat at 0.4 mg/kg, iv by HPLC-MS/MS method; type: ADME, organism-based; set-up: dose 0.4 mg/kg, route intravenous; settings: in vivo

CC(C)(C)c1cc(NC(=O)[C@@H]2CCCCN2C(=O)N2CCS(=O)(=O)CC2)no1
Vd [1]: 0.5 L/kg | Papp A→B [2]: 20 ×10⁻⁶ cm/s | bioavailability [3]: 62% | Papp B→A [4]: 22 ×10⁻⁶ cm/s | MRT [5]: 36 min
